These results are taken from ChEMBL document CHEMBL5728630, “Aryl, heteroaryl, and heterocyclic pharmaceutical compounds for treatment of medical disorders” (2021).

Complement factor D, sequence (P00746 whole entry): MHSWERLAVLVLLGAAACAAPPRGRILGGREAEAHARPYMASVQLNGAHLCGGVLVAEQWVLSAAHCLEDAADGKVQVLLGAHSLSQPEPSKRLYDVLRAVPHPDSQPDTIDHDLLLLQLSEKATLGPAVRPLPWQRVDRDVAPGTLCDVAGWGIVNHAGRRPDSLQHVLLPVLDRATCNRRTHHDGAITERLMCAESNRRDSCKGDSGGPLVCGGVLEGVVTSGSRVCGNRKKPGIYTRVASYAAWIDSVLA

This test addresses Complement factor D (Homo sapiens, UniProt P00746). Briefly: Factor D Assay: Human Factor D (purified from human serum, Complement Technology, Inc.) at 80 nM final concentration is incubated with test compound at various concentrations for 5 min at room temperature in 50 mM Tris, 1M NaCl, pH 7.5. A synthetic substrate Z-L-Lys-SBz and DTNB (Ellman's reagent) are added to final concentrations of 100 μM each. Absorbance at 405 nm (A405) is recorded at 30 second intervals for 30 min using a microplate spectrophotometer. IC50 values are calculated by nonlinear regression of complement Factor D reaction rates as a function of test compound concentration.
The term IC50 denotes the midpoint of a concentration-inhibition curve. Consider `CC(=O)c1nn(CC(=O)N2[C@H](C(=O)NCc3ccccc3C)C[C@@]3(C)C[C@@H]23)c2c(C)cc(-c3cnc(C)nc3)cc12`, for which the IC50 is under 1000 nM.

For the molecule `CC(=O)c1nn(CC(=O)N2[C@H](C(=O)NCc3ccncc3)C[C@@]3(C)C[C@@H]23)c2c(C)cc(-c3cnc(C)nc3)cc12`, the IC50 was under 1000 nM.

For the molecule `CC(=O)c1nn(CC(=O)N2[C@H](C(=O)NCCC3CCCCC3)C[C@@]3(C)C[C@@H]23)c2c(C)cc(-c3cnc(C)nc3)cc12`, the concentration for half-maximal inhibition (IC50) is under 1000 nM.

Regarding `CC(=O)c1nn(CC(=O)N2[C@H](C(=O)NCc3cccc(C)c3)C[C@@]3(C)C[C@@H]23)c2c(C)cc(-c3cnc(C)nc3)cc12`, the IC50 was under 1000 nM.

Turning to `CC(=O)c1nn(CC(=O)N2[C@H](C(=O)NCc3ccc(C)cc3)C[C@@]3(C)C[C@@H]23)c2c(C)cc(-c3cnc(C)nc3)cc12`, the IC50 was under 1000 nM.

In the case of `CC(=O)c1nn(CC(=O)N2[C@H](C(=O)Nc3cc(C(=O)O)cc(Br)n3)C[C@@]3(C)C[C@@H]23)c2c(CN)cc(-c3cnc(C)nc3)cc12`, the IC50 is under 1000 nM.

Take `CC(=O)c1nn(CC(=O)N2[C@H](C(=O)NCc3cccnn3)C[C@@]3(C)C[C@@H]23)c2c(C)cc(-c3cnc(C)nc3)cc12`: the IC50 is under 1000 nM.

Consider `CC(=O)c1nn(CC(=O)N2[C@H](C(=O)NCc3ccccn3)C[C@@]3(C)C[C@@H]23)c2c(C)cc(-c3cnc(C)nc3)cc12`, for which the IC50 is under 1000 nM.

Take `CC(=O)c1nn(CC(=O)N2[C@H](C(=O)NCCN3CCCCC3)C[C@@]3(C)C[C@@H]23)c2c(C)cc(-c3cnc(C)nc3)cc12`: the IC50 is over 10000 nM.

In the case of `CC(=O)c1nn(CC(=O)N2[C@H](C(=O)NCc3cccnc3)C[C@@]3(C)C[C@@H]23)c2c(C)cc(-c3cnc(C)nc3)cc12`, the IC50 was under 1000 nM.

As to `CC(=O)c1nn(CC(=O)N2[C@H](C(=O)NCc3ccc(F)cc3)C[C@@]3(C)C[C@@H]23)c2c(C)cc(-c3cnc(C)nc3)cc12`, the IC50 was under 1000 nM.

For the molecule `CC(=O)c1nn(CC(=O)N2[C@H](C(=O)NCc3cccc(F)c3)C[C@@]3(C)C[C@@H]23)c2c(C)cc(-c3cnc(C)nc3)cc12`, the IC50 was under 1000 nM.

Regarding `CC(=O)c1nn(CC(=O)N2[C@H](C(=O)NCc3cncnc3)C[C@@]3(C)C[C@@H]23)c2c(C)cc(-c3cnc(C)nc3)cc12`, the IC50 is under 1000 nM.

For the molecule `CC(=O)c1nn(CC(=O)N2[C@H](C(=O)NCc3ncccn3)C[C@@]3(C)C[C@@H]23)c2c(C)cc(-c3cnc(C)nc3)cc12`, the IC50 is under 1000 nM.

`CC(=O)c1nn(CC(=O)N2[C@H](C(=O)Nc3nc(Br)ccc3C)C[C@@]3(C)C[C@@H]23)c2ccc(-c3cnc(C)nc3)cc12` [VEMIRCOPAN]: the half-inhibitory concentration (IC50) was over 10000 nM.
